Assay: Inhibition of moloney murine leukemia virus reverse transcriptase

## C=C(C)[C@@H]1CC[C@]2(C(=O)O)CC[C@]3(C)[C@H](CC[C@@H]4[C@@]5(C)CC[C@H](O)C(C)(C)[C@@H]5CC[C@]43C)[C@@H]12 [BETULINIC ACID]
  EC50: 1400 nM

From ChEMBL document CHEMBL1158024, “Terpenoids of Syzygium formosanum” (J Nat Prod, 1999)
